# In patent EP0662819B1, “AN ANTIVIRALLY ACTIVE PHARMACEUTICAL OIL-IN-WATER EMULSION CONTAINING 9-[(2-HYDROXYETHOXY)METHYL]GUANINE (ACYCLOVIR) OR A SALT OR ESTER THEREOF” (A/S GEA Farmaceutisk Fabrik, priority 1992, dated 1994):
# Test: Solubility of acyclovir in glycerol formal/water and glycerol formal/propylene glycol/water mixtures
# Format: physicochemical
# Settings: room temperature
# Experimental: A surplus of acyclovir is added to glycerol formal/water mixtures and glycerol formal/propylene glycol/water mixtures at room temperature, and the mixtures are then stirred for 2 hours and filtered. Subsequent to adequate dilution with 0.1 N NaOH the solutions are spectrophotometrically measured at 260 nm against 0.1 N NaOH. A 0.01% solution of acyclovir in 0.1 N NaOH is used as standard.
smiles,measurement,setting,value
"Nc1nc2c(ncn2COCCO)c(=O)[nH]1 [acyclovir, 9-[(2-hydroxyethoxy)methyl]guanine]",solubility at 2 h,"0 percent by volume glycerol formal in water, stirred 2 hours",1170 µg/mL
same,solubility at 2 h,"10% glycerol formal in water, organic solvent or mixture, 10 percent by volume glycerol formal in water, stirred 2 hours",1630 µg/mL
same,solubility at 2 h,"25% glycerol formal in water, organic solvent or mixture, 25 percent by volume glycerol formal in water, stirred 2 hours",2640 µg/mL
same,solubility at 2 h,"50% glycerol formal in water, organic solvent or mixture, 50 percent by volume glycerol formal in water, stirred 2 hours",4370 µg/mL
same,solubility at 2 h,"60% glycerol formal in water, organic solvent or mixture, 60 percent by volume glycerol formal in water, stirred 2 hours",4670 µg/mL
same,solubility at 2 h,"75% glycerol formal in water, organic solvent or mixture, 75 percent by volume glycerol formal in water, stirred 2 hours",4150 µg/mL
same,solubility at 2 h,"90% glycerol formal in water, organic solvent or mixture, 90 percent by volume glycerol formal in water, stirred 2 hours",2970 µg/mL
same,solubility at 2 h,"glycerol formal/water 40/20, organic solvent or mixture, Glycerol formal/propylene glycol/water 40/0/20 g/g/ml",5730 µg/mL
same,solubility at 2 h,"organic solvent or mixture, 100 percent by volume glycerol formal, stirred 2 hours",3270 µg/mL
same,solubility at 2 h,"organic solvent or mixture, Glycerol formal/propylene glycol/water 11/29/20 g/g/ml",4710 µg/mL
same,solubility at 2 h,"organic solvent or mixture, Glycerol formal/propylene glycol/water 20/20/20 g/g/ml",4600 µg/mL
same,solubility at 2 h,"organic solvent or mixture, Glycerol formal/propylene glycol/water 30/10/20 g/g/ml",5200 µg/mL
same,solubility at 2 h,"propylene glycol/water 40/20, organic solvent or mixture, Glycerol formal/propylene glycol/water 0/40/20 g/g/ml",3440 µg/mL
